Laboratory results: patent US12304890B2, “R-type pyridyloxycarboxylic acid, salt and ester derivative thereof, and preparation method therefor, and herbicidal composition and application thereof” (Qingdao Kingagroot Chemical Compound Co., Ltd., priority 2018, dated 2025)

Columns and labels:
Assay type in all cases: in vivo
[1] = test system: rice; experiment: Post-emergence test experiment, rice (crop selectivity); details: 3 weeks
Experimental: (§1) The above described growth inhibition rate is fresh weight inhibition rate.
(§2) Post-emergence test experiment: Monocotyledonous and dicotyledonous weed seeds and main crop seeds (i. e. wheat, corn, rice, soybean, cotton, oilseed, millet and sorghum.) were put into a plastic pot loaded with soil. Then covered with 0.5-2 cm soil, the seeds were allowed to grow in good greenhouse environment. The test plants were treated at 2-3 leaf stage 2 weeks after sowing. The test compounds of the invention were dissolved with acetone respectively, then added with tween-80, and using 1.5 liters per hectare of an emulsible concentrate of methyl oleate as a synergist, and diluted by certain amount of water to certain concentration. The solution was sprayed to the plants with a sprayer. Then the plants were cultured for 3 weeks in the greenhouse, and the experiment result of weed controlling effect was listed in tables 4-5.

[2] = test system: Monocotyledonous and dicotyledonous weed seeds and main crop seeds; experiment: Post-emergence test experiment, other weeds and crops (Table 4, 1000 g a.i./ha); details: 3 weeks in greenhouse, fresh weight inhibition
Summary of the method: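 Weed and crop seeds (wheat, corn, rice, soybean, cotton, oilseed, millet, sorghum) sown in soil pots in a greenhouse and sprayed at 2-3 leaf stage, 2 weeks after sowing. Compound in acetone/tween-80 with methyl oleate concentrate (1.5 L/ha) as synergist. Effect recorded as fresh-weight growth inhibition rate.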

[3] = test system: Echinochloa crusgalli; experiment: Post-emergence test experiment, Echinochloa crusgalli; details: for Echinochloa crusgalli, activity level (growth inhibition rate): 3 weeks; for Activity level (growth inhibition rate), Echinochloa crusgalli: 1000 g a.i./ha, 3 weeks in greenhouse, fresh weight inhibition
Summary of the method: (§3)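 Read-out is fresh weight inhibition rate, taken 3 weeks after spraying. Treatment was applied to plants at the 2-3 leaf stage, grown from seed under 0.5-2 cm soil in greenhouse pots. Spray solution contained acetone, tween-80 and methyl oleate emulsible concentrate at 1.5 liters per hectare.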

[4] = test system: Digitaria sanguinalis; experiment: Post-emergence test experiment, Digitaria sanguinalis; details: for Digitaria sanguinalis, activity level (growth inhibition rate): 3 weeks; for Activity level (growth inhibition rate), Digitaria sanguinalis: 1000 g a.i./ha, 3 weeks in greenhouse, fresh weight inhibition
Summary of the method: as §3

[5] = test system: Semen Euphorbiae Lathyridis; experiment: Post-emergence test experiment, Semen Euphorbiae Lathyridis; details: 3 weeks
Experimental: as §1, §2

[6] = 200 g a.i./ha, weed resistant to ALS inhibitor and ACCe herbicides
[7] = 200 g a.i./ha, weed resistant to cyhalofop-butyl

Row | SMILES | rice, activity level (growth inhibition rate) ([1]; 200 g a.i./ha) | Activity level (growth inhibition rate), Abutilon theophrasti Medic. [2] | Activity level (growth inhibition rate), Galium aparine [2] | Activity level (growth inhibition rate), Monochoria Vaginalis [2] | Echinochloa crusgalli, activity level (growth inhibition rate) [3, 6] | Activity level (growth inhibition rate), Echinochloa crusgalli [3] | Digitaria sanguinalis, activity level (growth inhibition rate) [4, 7] | Activity level (growth inhibition rate), Digitaria sanguinalis [4] | Semen Euphorbiae Lathyridis, activity level (growth inhibition rate) [5, 7] | rice, activity level (growth inhibition rate) ([1]; 100 g a.i./ha) | rice, activity level (growth inhibition rate) ([1]; 400 g a.i./ha) | Echinochloa crusgalli, activity level (growth inhibition rate) ([3]; 100 g a.i./ha, resistant weed) | Echinochloa crusgalli, activity level (growth inhibition rate) ([3]; 400 g a.i./ha, resistant weed) | Digitaria sanguinalis, activity level (growth inhibition rate) ([4]; 100 g a.i./ha, resistant weed) | Digitaria sanguinalis, activity level (growth inhibition rate) ([4]; 400 g a.i./ha, resistant weed) | Semen Euphorbiae Lathyridis, activity level (growth inhibition rate) ([5]; 100 g a.i./ha, resistant weed) | Semen Euphorbiae Lathyridis, activity level (growth inhibition rate) ([5]; 400 g a.i./ha, resistant weed)
1 | CCCCC(C)OC(=O)[C@@H](C)Oc1nc(F)c(Cl)c(N)c1Cl (stereo partly shown) [Compound 2-113] | 0 (Level 0: the growth inhibition rate is less than 5%) | 5 (Level 5: the growth inhibition rate is greater than 85%) | 5 (Level 5: the growth inhibition rate is greater than 85%) | 5 (Level 5: the growth inhibition rate is greater than 85%) | 5 (Level 5: the growth inhibition rate is greater than 85%) | 5 (Level 5: the growth inhibition rate is greater than 85%) | 5 (Level 5: the growth inhibition rate is greater than 85%) | 5 (Level 5: the growth inhibition rate is greater than 85%) | 5 (Level 5: the growth inhibition rate is greater than 85%) | – | – | – | – | – | – | – | –
2 | CC(C)=NOCCOC(=O)C(C)Oc1nc(F)c(Cl)c(N)c1Cl (stereo not shown) [Compound 2-287] | 0 (Level 0: the growth inhibition rate is less than 5%) | 5 (Level 5: the growth inhibition rate is greater than 85%) | 5 (Level 5: the growth inhibition rate is greater than 85%) | 5 (Level 5: the growth inhibition rate is greater than 85%) | 5 (Level 5: the growth inhibition rate is greater than 85%) | 5 (Level 5: the growth inhibition rate is greater than 85%) | 5 (Level 5: the growth inhibition rate is greater than 85%) | 5 (Level 5: the growth inhibition rate is greater than 85%) | 5 (Level 5: the growth inhibition rate is greater than 85%) | – | – | – | – | – | – | – | –
3 | CCCCCSC(=O)[C@@H](C)Oc1nc(F)c(Cl)c(N)c1Cl [Compound 2-86] | 0 (Level 0: the growth inhibition rate is less than 5%) | 5 (Level 5: the growth inhibition rate is greater than 85%) | 5 (Level 5: the growth inhibition rate is greater than 85%) | 5 (Level 5: the growth inhibition rate is greater than 85%) | 5 (Level 5: the growth inhibition rate is greater than 85%) | 5 (Level 5: the growth inhibition rate is greater than 85%) | 5 (Level 5: the growth inhibition rate is greater than 85%) | 5 (Level 5: the growth inhibition rate is greater than 85%) | 5 (Level 5: the growth inhibition rate is greater than 85%) | – | – | – | – | – | – | – | –
4 | CCCCCCCCCCCCOC(=O)[C@@H](C)Oc1nc(F)c(Cl)c(N)c1Cl [Compound 2-235] | 0 (Level 0: the growth inhibition rate is less than 5%) | 5 (Level 5: the growth inhibition rate is greater than 85%) | 5 (Level 5: the growth inhibition rate is greater than 85%) | 5 (Level 5: the growth inhibition rate is greater than 85%) | 5 (Level 5: the growth inhibition rate is greater than 85%) | 5 (Level 5: the growth inhibition rate is greater than 85%) | 5 (Level 5: the growth inhibition rate is greater than 85%) | 5 (Level 5: the growth inhibition rate is greater than 85%) | 5 (Level 5: the growth inhibition rate is greater than 85%) | – | – | – | – | – | – | – | –
5 | CCCC(C)COC(=O)[C@@H](C)Oc1nc(F)c(Cl)c(N)c1Cl (stereo partly shown) [Compound 2-103] | 0 (Level 0: the growth inhibition rate is less than 5%) | 5 (Level 5: the growth inhibition rate is greater than 85%) | 5 (Level 5: the growth inhibition rate is greater than 85%) | 5 (Level 5: the growth inhibition rate is greater than 85%) | 5 (Level 5: the growth inhibition rate is greater than 85%) | 5 (Level 5: the growth inhibition rate is greater than 85%) | 5 (Level 5: the growth inhibition rate is greater than 85%) | 5 (Level 5: the growth inhibition rate is greater than 85%) | 5 (Level 5: the growth inhibition rate is greater than 85%) | – | – | – | – | – | – | – | –
6 | C[C@@H](Oc1nc(F)c(Cl)c(N)c1Cl)C(=O)OCCCC(F)(F)F [Compound 2-280] | 0 (Level 0: the growth inhibition rate is less than 5%) | 5 (Level 5: the growth inhibition rate is greater than 85%) | 5 (Level 5: the growth inhibition rate is greater than 85%) | 5 (Level 5: the growth inhibition rate is greater than 85%) | 5 (Level 5: the growth inhibition rate is greater than 85%) | 5 (Level 5: the growth inhibition rate is greater than 85%) | 5 (Level 5: the growth inhibition rate is greater than 85%) | 5 (Level 5: the growth inhibition rate is greater than 85%) | 5 (Level 5: the growth inhibition rate is greater than 85%) | – | – | – | – | – | – | – | –
7 | CCCCOCCOC(=O)C(C)Oc1nc(F)c(Cl)c(N)c1Cl (stereo not shown) [Compound 2-271] | 0 (Level 0: the growth inhibition rate is less than 5%) | 5 (Level 5: the growth inhibition rate is greater than 85%) | 5 (Level 5: the growth inhibition rate is greater than 85%) | 5 (Level 5: the growth inhibition rate is greater than 85%) | 5 (Level 5: the growth inhibition rate is greater than 85%) | 5 (Level 5: the growth inhibition rate is greater than 85%) | 5 (Level 5: the growth inhibition rate is greater than 85%) | 5 (Level 5: the growth inhibition rate is greater than 85%) | 5 (Level 5: the growth inhibition rate is greater than 85%) | – | – | – | – | – | – | – | –
8 | CC(Oc1nc(F)c(Cl)c(N)c1Cl)C(=O)OCC1CCCO1 (stereo not shown) [Compound 2-298] | – | 5 (Level 5: the growth inhibition rate is greater than 85%) | 5 (Level 5: the growth inhibition rate is greater than 85%) | 5 (Level 5: the growth inhibition rate is greater than 85%) | 5 (Level 5: the growth inhibition rate is greater than 85%) | 5 (Level 5: the growth inhibition rate is greater than 85%) | 5 (Level 5: the growth inhibition rate is greater than 85%) | 5 (Level 5: the growth inhibition rate is greater than 85%) | 5 (Level 5: the growth inhibition rate is greater than 85%) | 0 (Level 0: the growth inhibition rate is less than 5%) | 1 (Level 1: the growth inhibition rate is equal to or greater than 5% and less than 20%) | 4 (Level 4: the growth inhibition rate is equal to or greater than 60% and less than 85%) | 5 (Level 5: the growth inhibition rate is greater than 85%) | 5 (Level 5: the growth inhibition rate is greater than 85%) | 5 (Level 5: the growth inhibition rate is greater than 85%) | 5 (Level 5: the growth inhibition rate is greater than 85%) | 5 (Level 5: the growth inhibition rate is greater than 85%)
